Experimental data taken from publication PMC4556614 (PLoS ONE, 2015).
Where two headings read alike, the source gives them in different places.

Tests used:
OCT2 [1] = molecular target: T1, OCT2 (Homo sapiens, UniProt O15244); assay: in vitro; details: for inhibition at 3 min, 20 µM / inhibition at 3 min, 200 µM: pH 7.3, probe [14C]metformin, 1000 µM, metformin 1000 μM, net uptake HEK-OCT2 minus HEK-VC; for inhibition at 3 min, 20 µM: % Inhibition of OCT2-dependent MF uptake at 20 µM (mean ± SEM), test drug 20 µM; for inhibition at 3 min, 200 µM: % Inhibition of OCT2-dependent MF uptake at 200 µM (mean ± SEM), test drug 200 µM
Experimental: (§1) For the transport assays HEK cell lines stably transfected with human OCT2 (HEK-OCT2) or the vector only (HEK-VC) were used. The HEK-OCT2 cell line was established and characterized previously. HEK-OCT2 and HEK-VC cells were seeded in poly-D-lysine (Sigma Aldrich, Taufkirchen, Germany) coated 48-well-plates at a density of 1.2 x 10^5 cells/well. […] Uptake was stopped by washing the cells three times with ice-cold uptake buffer. Afterwards, cells were lysed with 5 mM Tris buffer (pH 7.3) containing 0.1% Triton X-100. The intracellular accumulation of radioactivity was determined by liquid scintillation counting (PerkinElmer, Rodgau-Jügesheim, Germany) and protein concentration of each lysate was measured with bicinchonic acid assay (BCA Protein Assay Kit, Thermo Fisher Scientific, Waltham, MA, USA). We performed two to eight experiments each on at least two separate days, i.e., n = 4–16.
Experimental half-maximal inhibitory concentrations (IC50 values) were measured as the substrate uptake in the presence of increasing concentrations of test drugs. These experiments were performed as described above (three experiments each on two separate days, i.e., n = 6). IC50 values were calculated with GraphPad Prism 5.0 (GraphPad Software, San Diego, CA, USA). IC50 was estimated by a sigmoidal inhibition model and was fit to the equation V = V 0 / (1 + (I / IC50 ) ^n ) by nonlinear regression. V is the net uptake in the presence of the inhibitor, V 0 is the net uptake in the absence of the inhibitor, I is the concentration of the inhibitor and n is the slope.

OCT2 [2] = molecular target: T1, OCT2; assay: Inhibition of OCT2-mediated [3H]MPP+ uptake in HEK-OCT2 cells; details: for inhibition at 3 min, 20 µM / inhibition at 3 min, 200 µM: pH 7.3, probe [3H]MPP+, 50 µM
Experimental: as §1

[3] = test drug 20 µM, MPP+ 50 μM, 3 min, net uptake HEK-OCT2 minus HEK-VC
[4] = test drug 200 µM, MPP+ 50 μM, 3 min, net uptake HEK-OCT2 minus HEK-VC

T1 sequence (O15244 whole entry): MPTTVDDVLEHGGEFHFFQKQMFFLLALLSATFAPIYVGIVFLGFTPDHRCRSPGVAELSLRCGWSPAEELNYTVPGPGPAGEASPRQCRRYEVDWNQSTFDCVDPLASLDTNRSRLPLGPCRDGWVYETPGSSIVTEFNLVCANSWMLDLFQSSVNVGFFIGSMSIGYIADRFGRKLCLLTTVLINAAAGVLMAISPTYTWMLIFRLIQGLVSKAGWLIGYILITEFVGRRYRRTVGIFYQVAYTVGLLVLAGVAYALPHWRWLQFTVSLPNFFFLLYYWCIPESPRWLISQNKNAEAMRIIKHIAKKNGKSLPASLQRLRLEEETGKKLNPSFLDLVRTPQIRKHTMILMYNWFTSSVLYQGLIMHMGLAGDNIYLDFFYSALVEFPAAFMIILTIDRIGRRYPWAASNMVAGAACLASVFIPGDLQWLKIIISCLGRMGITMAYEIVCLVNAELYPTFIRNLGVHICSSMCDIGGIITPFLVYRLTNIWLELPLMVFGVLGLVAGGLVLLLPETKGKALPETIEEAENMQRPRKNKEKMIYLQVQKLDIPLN

Compound | % Inhibition of OCT2-dependent MPP+ uptake at 20 µM (mean ± SEM) (OCT2 [2]; [3]) [%] | % Inhibition of OCT2-dependent MPP+ uptake at 200 µM (mean ± SEM) (OCT2 [2]; [4]) [%] | % Inhibition of OCT2-dependent MF uptake at 20 µM (mean ± SEM) (OCT2 [1]; human, pH 7.3) | % Inhibition of OCT2-dependent MF uptake at 200 µM (mean ± SEM) (OCT2 [1]; human, pH 7.3) | other results
Cl.Cl.OCCN1CCN(CCC=C2c3ccccc3Sc3ccc(C(F)(F)F)cc32)CC1 (mixture of isomers) [Flupentixol] | 22.9 ± 7.5 | 107.8 ± 5.0 |  |  | % Inhibition of OCT2-dependent MF uptake at 20 µM (mean ± SEM) (OCT2 [1]): 75.0 ± 7.9; % Inhibition of OCT2-dependent MF uptake at 200 µM (mean ± SEM) (OCT2 [1]): 96.1 ± 2.1
N[C@@H]1C[C@H]1c1ccccc1 (racemic) [Tranylcypromine] |  |  |  |  | % Inhibition of OCT2-dependent MF uptake at 20 µM (mean ± SEM) (OCT2 [1]): 39.0 ± 3.3; % Inhibition of OCT2-dependent MF uptake at 200 µM (mean ± SEM) (OCT2 [1]): 79.1 ± 2.9; % Inhibition of OCT2-dependent MPP+ uptake at 20 µM (mean ± SEM) (OCT2 [2]): 27.8 ± 5.6; % Inhibition of OCT2-dependent MPP+ uptake at 200 µM (mean ± SEM) (OCT2 [2]): 54.7 ± 3.1
CC(=O)Oc1ccccc1C(=O)O [ASA, acetylsalicylic acid] | -10.6 ± 5.7 | -1.5 ± 4.5 | -18.7 ± 11.0% | 1.3 ± 8.9% | 
CC(=O)NCCCS(=O)(=O)O [Acamprosate] | -8.1 ± 4.4 | -7.7 ± 5.2 | 2.7 ± 4.8% | 0.9 ± 5.8% | 
CC(=O)N[C@@H](CS)C(=O)O [Acetylcysteine] | -35.6 ± 7.7 | -36.0 ± 3.2 | 13.2 ± 6.3% | 11.0 ± 9.4% | 
COc1ccc2cccc(CCNC(C)=O)c2c1 [Agomelatine] |  |  |  |  | inhibition at 3 min, 20 µM (OCT2 [1]; human): 71.3 ± 2.6%; inhibition at 3 min, 200 µM (OCT2 [1]; human): 95.5 ± 1.8%; inhibition at 3 min, 20 µM (OCT2 [2]; human): -10.3 ± 2.7%; inhibition at 3 min, 200 µM (OCT2 [2]; human): 39.9 ± 3.5%
Oc1ncnc2[nH]ncc12 [Allopurinol] |  |  |  |  | inhibition at 3 min, 20 µM (OCT2 [1]; human): 24.8 ± 6.9%; inhibition at 3 min, 200 µM (OCT2 [1]; human): 26.8 ± 3.9%; inhibition at 3 min, 20 µM (OCT2 [2]; human): 35.6 ± 7.5%; inhibition at 3 min, 200 µM (OCT2 [2]; human): 52.7 ± 8.8%
CCN1CCCC1CNC(=O)c1cc(S(=O)(=O)CC)c(N)cc1OC (stereo not drawn) [Amisulpride] |  |  |  |  | inhibition at 3 min, 20 µM (OCT2 [1]; human): 52 ± 2.1%; inhibition at 3 min, 200 µM (OCT2 [1]; human): 91.7 ± 0.7%; inhibition at 3 min, 20 µM (OCT2 [2]; human): 25.5 ± 7%; inhibition at 3 min, 200 µM (OCT2 [2]; human): 51.3 ± 6.7%
CCOC(=O)C1=C(COCCN)NC(C)=C(C(=O)OC)C1c1ccccc1Cl (stereo not drawn) [Amlodipine] | -13.8 ± 7.4 | 39.3 ± 6.8 | 21.9 ± 9.0% | 110.0 ± 17.3% | 
CC1(C)S[C@@H]2[C@H](NC(=O)[C@H](N)c3ccc(O)cc3)C(=O)N2[C@H]1C(=O)O [Amoxicillin] | -21.0 ± 11.1 | -13.5 ± 14.5 | 3.2 ± 6.6% | 4.5 ± 5.1% | 
O=C1CCc2ccc(OCCCCN3CCN(c4cccc(Cl)c4Cl)CC3)cc2N1 [Aripiprazole] | 6.7 ± 3.6 | 16.9 ± 5.2 | 53.4 ± 9.1% | 82.0 ± 6.7% | 
O=C(CCCN1CCC(n2c(O)nc3ccccc32)CC1)c1ccc(F)cc1 [Benperidol] | -21.5 ± 2.8 | 1.6 ± 8.3 | 58.7 ± 3.3% | 72.2 ± 2.7% | 
CC(C)NCC(O)COc1ccc(COCCOC(C)C)cc1 (stereo not drawn) [Bisoprolol] | -16.1 ± 2.2 | 11.8 ± 5.5 | 57.2 ± 4.0% | 75.8 ± 4.5% | 
O=C1CN=C(c2ccccn2)c2cc(Br)ccc2N1 [Bromazepam] |  |  | 27.6 ± 2.6% | 77.9 ± 1.4% | % Inhibition of OCT2-dependent MPP+ uptake at 20 µM (mean ± SEM) (OCT2 [2]; human, pH 7.3): -16.3 ± 9.0%; % Inhibition of OCT2-dependent MPP+ uptake at 200 µM (mean ± SEM) (OCT2 [2]; human, pH 7.3): 14.7 ± 8.3%
CCOc1nc2cccc(C(=O)O)c2n1Cc1ccc(-c2ccccc2-c2nnn[nH]2)cc1 [Candesartan] |  |  |  |  | inhibition at 3 min, 20 µM (OCT2 [1]; human): 48 ± 3.7%; inhibition at 3 min, 200 µM (OCT2 [1]; human): 69.7 ± 2.7%; inhibition at 3 min, 20 µM (OCT2 [2]; human): 0.9 ± 0.1%; inhibition at 3 min, 200 µM (OCT2 [2]; human): -2.4 ± 4%
C[C@H](CS)C(=O)N1CCC[C@H]1C(=O)O [Captopril] | 3.8 ± 5.7 | 10.2 ± 6.8 | -21.6 ± 19.5% | -59.0 ± 0.9% | 
NC(=O)N1c2ccccc2C=Cc2ccccc21 [Carbamazepine] | -51.4 ± 9.2 | -2.1 ± 4.4 | 0.2 ± 3.8% | 83.8 ± 1.2% | 
COc1ccccc1OCCNCC(O)COc1cccc2[nH]c3ccccc3c12 (stereo not drawn) [Carvedilol] | 32.2 ± 3.7 | 88.5 ± 1.5 | 84.3 ± 5.2% | 98.6 ± 0.5% | 
CO/N=C(\C(=O)N[C@@H]1C(=O)N2C(C(=O)O)=C(COC(N)=O)CS[C@H]12)c1ccco1 [Cefuroxime] | -10.5 ± 7.0 | -30.8 ± 12.9 | 29.9 ± 9.7% | 50.3 ± 11.6% | 
CN(C)CC/C=C1/c2ccccc2Sc2ccc(Cl)cc21 [Chlorprothixene] | 29.9 ± 7.5 | 91.7 ± 2.2 | 66.8 ± 7.9% | 98.4 ± 0.9% | 
C=C1CC[C@H](O)C/C1=C/C=C1\CCC[C@]2(C)[C@@H]([C@H](C)CCCC(C)C)CC[C@@H]12 [Cholecalciferol] | 6.8 ± 5.1 | 10.4 ± 6.1 | 2.8 ± 15.7 | 17.1 ± 5.0 | 
CN(C)CCCC1(c2ccc(F)cc2)OCc2cc(C#N)ccc21 (stereo not drawn) [Citalopram] | 40.0 ± 9.9 | 75.2 ± 9.7 | 66.6 ± 7.9 | 78.9 ± 8.4 | 
Cc1ncsc1CCCl [Clomethiazole] | -6.7 ± 9.2 | -147.3 ± 23.7 | -9.2 ± 6.8 | 28.7 ± 3.9 | 
COC(=O)[C@H](c1ccccc1Cl)N1CCc2sccc2C1 [Clopidogrel] |  |  | 70.0 ± 2.0 | 92.8 ± 5.4 | % Inhibition of OCT2-dependent MPP+ uptake at 20 µM (mean ± SEM) (OCT2 [2]; human, pH 7.3): 12.5 ± 0.8; % Inhibition of OCT2-dependent MPP+ uptake at 200 µM (mean ± SEM) (OCT2 [2]; human, pH 7.3): 41.5 ± 4.0
